According to ChEMBL document CHEMBL1122959, “3-Hydroxy-3-methylglutaryl-coenzyme A reductase inhibitors. 1. Structural modification of 5-substituted 3,5-dihydroxypentanoic acids and their lactone derivatives” (J Med Chem, 1985):
One block for each compound: values may come before it.

Key:
[1] = molecular target: T1, 3-hydroxy-3-methylglutaryl-coenzyme A reductase (Rattus norvegicus) (UniProt P51639); assay: Inhibitory activity against partially purified rat liver HMG CoA reductase at 50 ug/ml concentration
T1 sequence (whole entry): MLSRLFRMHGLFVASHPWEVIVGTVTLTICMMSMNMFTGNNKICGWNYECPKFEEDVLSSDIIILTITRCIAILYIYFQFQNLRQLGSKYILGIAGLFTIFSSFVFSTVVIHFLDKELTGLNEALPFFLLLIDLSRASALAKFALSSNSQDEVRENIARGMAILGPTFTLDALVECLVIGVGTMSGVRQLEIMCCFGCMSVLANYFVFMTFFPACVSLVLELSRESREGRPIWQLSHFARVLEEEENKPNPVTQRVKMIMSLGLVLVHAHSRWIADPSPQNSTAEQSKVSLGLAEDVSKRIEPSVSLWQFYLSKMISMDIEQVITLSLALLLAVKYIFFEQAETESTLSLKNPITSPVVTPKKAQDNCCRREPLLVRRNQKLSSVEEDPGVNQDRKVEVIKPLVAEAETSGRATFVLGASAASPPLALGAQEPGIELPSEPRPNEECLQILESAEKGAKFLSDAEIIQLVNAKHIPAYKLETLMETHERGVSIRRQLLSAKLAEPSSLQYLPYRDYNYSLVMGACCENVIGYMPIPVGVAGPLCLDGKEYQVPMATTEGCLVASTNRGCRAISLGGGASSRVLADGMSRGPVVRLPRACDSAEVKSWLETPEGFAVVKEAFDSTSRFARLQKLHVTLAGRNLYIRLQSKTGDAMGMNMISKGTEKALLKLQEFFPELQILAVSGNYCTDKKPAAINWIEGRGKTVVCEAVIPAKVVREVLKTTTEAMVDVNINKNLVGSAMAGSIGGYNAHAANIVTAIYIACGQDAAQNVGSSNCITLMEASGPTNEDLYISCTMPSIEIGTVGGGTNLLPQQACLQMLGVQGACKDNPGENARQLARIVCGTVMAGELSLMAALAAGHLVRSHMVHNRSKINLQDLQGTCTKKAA

[2] = molecular target: T1, 3-hydroxy-3-methylglutaryl-coenzyme A reductase (Rattus norvegicus); assay: Inhibition of partially purified rat liver HMG CoA reductase at 10 ug/ml concentration
[3] = molecular target: T1, 3-hydroxy-3-methylglutaryl-coenzyme A reductase (Rattus norvegicus); assay: Inhibitory activity against partially purified rat liver HMG CoA reductase at 5 ug/ml concentration
[4] = molecular target: T1, 3-hydroxy-3-methylglutaryl-coenzyme A reductase (Rattus norvegicus); assay: Inhibitory activity against partially purified rat liver HMG CoA reductase at 20 ug/ml concentration
[5] = molecular target: T1, 3-hydroxy-3-methylglutaryl-coenzyme A reductase (Rattus norvegicus); assay: Inhibitory activity against partially purified rat liver HMG CoA reductase at 2 ug/ml concentration
[6] = molecular target: T1, 3-hydroxy-3-methylglutaryl-coenzyme A reductase (Rattus norvegicus); assay: Inhibitory activity against partially purified rat liver HMG CoA reductase at 8 ug/ml concentration
[7] = molecular target: T1, 3-hydroxy-3-methylglutaryl-coenzyme A reductase (Rattus norvegicus); assay: Inhibitory activity against partially purified rat liver HMG CoA reductase at 4 ug/ml concentration
[8] = molecular target: T1, 3-hydroxy-3-methylglutaryl-coenzyme A reductase (Rattus norvegicus); assay: Inhibitory activity against partially purified rat liver HMG CoA reductase at 1 ug/ml concentration
[9] = molecular target: T1, 3-hydroxy-3-methylglutaryl-coenzyme A reductase (Rattus norvegicus); assay: Inhibitory activity against partially purified rat liver HMG CoA reductase at 0.625 ug/ml concentration
[10] = molecular target: T1, 3-hydroxy-3-methylglutaryl-coenzyme A reductase (Rattus norvegicus); assay: Inhibitory activity against partially purified rat liver HMG CoA reductase at 3.125 ug/ml concentration
[11] = molecular target: T1, 3-hydroxy-3-methylglutaryl-coenzyme A reductase (Rattus norvegicus); assay: Inhibitory activity against partially purified rat liver HMG CoA reductase at 0.4 ug/ml concentration
[12] = molecular target: T1, 3-hydroxy-3-methylglutaryl-coenzyme A reductase (Rattus norvegicus); assay: Inhibitory activity against partially purified rat liver HMG CoA reductase at 0.8 ug/ml concentration
[13] = molecular target: T1, 3-hydroxy-3-methylglutaryl-coenzyme A reductase (Rattus norvegicus); assay: Inhibitory activity against partially purified rat liver HMG CoA reductase at 0.2 ug/ml concentration
[14] = molecular target: T1, 3-hydroxy-3-methylglutaryl-coenzyme A reductase (Rattus norvegicus); assay: Inhibitory activity against partially purified rat liver HMG CoA reductase at 0.1 ug/ml concentration
[15] = molecular target: T1, 3-hydroxy-3-methylglutaryl-coenzyme A reductase (Rattus norvegicus); assay: Inhibitory activity against partially purified rat liver HMG CoA reductase at 12.5 ug/ml concentration
[16] = molecular target: T2, 3-hydroxy-3-methylglutaryl-coenzyme A reductase (Rattus norvegicus, UniProt P51639); assay: In vitro inhibitory activity against HMG CoA reductase
T2 sequence (P51639 whole entry): T1 sequence (whole entry)

[17] = molecular target: T1, 3-hydroxy-3-methylglutaryl-coenzyme A reductase (Rattus norvegicus); assay: Inhibitory activity against partially purified rat liver HMG CoA reductase at 6 ug/ml concentration
[18] = molecular target: T1, 3-hydroxy-3-methylglutaryl-coenzyme A reductase (Rattus norvegicus); assay: Relative potency against HMG CoA reductase
[19] = molecular target: T1, 3-hydroxy-3-methylglutaryl-coenzyme A reductase (Rattus norvegicus); assay: Inhibitory activity against partially purified rat liver HMG CoA reductase at 1 ug/mL concentration
[20] = molecular target: T1, 3-hydroxy-3-methylglutaryl-coenzyme A reductase (Rattus norvegicus); assay: Inhibitory activity against partially purified rat liver HMG CoA reductase at 25 ug/ml concentration
[21] = molecular target: T1, 3-hydroxy-3-methylglutaryl-coenzyme A reductase (Rattus norvegicus); assay: Inhibitory activity against partially purified rat liver HMG CoA reductase at 4 ug/mL concentration
[22] = molecular target: T1, 3-hydroxy-3-methylglutaryl-coenzyme A reductase (Rattus norvegicus); conditions: 1.4 ug/ml
Description: Inhibitory activity against partially purified rat liver HMG CoA reductase at 1.4 ug/ml concentration

[23] = molecular target: T1, 3-hydroxy-3-methylglutaryl-coenzyme A reductase (Rattus norvegicus); assay: Inhibitory activity against partially purified rat liver HMG CoA reductase at 0.75 ug/ml concentration
[24] = molecular target: T1, 3-hydroxy-3-methylglutaryl-coenzyme A reductase (Rattus norvegicus); assay: Inhibitory activity against partially purified rat liver HMG CoA reductase at 0.35 ug/ml concentration
[25] = molecular target: T1, 3-hydroxy-3-methylglutaryl-coenzyme A reductase (Rattus norvegicus); assay: Inhibitory activity against partially purified rat liver HMG CoA reductase at 1.0 ug/ml concentration

- inhibition [1]: 34%
- inhibition [2]: 6%
- inhibition [3]: 23%
- inhibition [4]: 17%
SMILES: O=C1C[C@H](O)CC(CCC2CCCCC2)O1 (stereo partly specified)

- inhibition [5]: 0%
- inhibition [6]: 6%
- inhibition [2]: 0%
- inhibition [7]: 0%
SMILES: CO[C@@H]1C[C@H](O)C[C@@H](/C=C/c2ccc(Cl)cc2Cl)O1

- inhibition [1]: 23%
- inhibition [2]: 26%
- inhibition [3]: 4%
- inhibition [4]: 27%
SMILES: O=C1C[C@H](O)CC(c2ccc(Cl)cc2Cl)O1 (stereo partly specified)

- inhibition [5]: 24%
- inhibition [8]: 21%
- inhibition [2]: 21%
- inhibition [7]: 18%
SMILES: O=C1C[C@H](O)C[C@@H](COc2ccc(Cl)cc2Cl)O1

- inhibition [9]: 0%
- inhibition [10]: 8%
SMILES: O=C1C[C@H](O)C[C@@H](C#Cc2ccc(Cl)cc2Cl)O1

- inhibition [5]: 4%
- inhibition [1]: 18%
- inhibition [2]: 27%
- inhibition [3]: 6%
- inhibition [4]: 17%
SMILES: O=C1C[C@@H](O)C[C@@H](/C=C/c2ccc(Cl)cc2Cl)O1 (racemic)

- inhibition [11]: 14%
- inhibition [12]: 20%
- inhibition [13]: 36%
- inhibition [14]: 22%
SMILES: O=C1C[C@H](O)CC(C=C(c2ccccc2)c2ccccc2)O1 (stereo partly specified)

- inhibition [1]: 36%
- inhibition [2]: 0%
- inhibition [3]: 1%
- inhibition [4]: 6%
SMILES: O=C1C[C@H](O)C[C@@H](C2CCCCC2)O1

- inhibition [8]: 18%
- inhibition [15]: 28%
- inhibition [3]: 16%
SMILES: O=C1C[C@H](O)CC(CCC23CC4CC(CC(C4)C2)C3)O1 (stereo partly specified)

- IC50 [16]: 129 µM
- inhibition [1]: 61%
- inhibition [2]: 29%
- inhibition [3]: 19%
- inhibition [4]: 45%
SMILES: O=C1C[C@H](O)CC(CCc2cccc3ccccc23)O1 (stereo partly specified)

- inhibition [5]: 0%
- inhibition [7]: 2%
- inhibition [17]: 4%
SMILES: CO[C@H]1C[C@H](O)C[C@@H](/C=C/c2ccc(Cl)cc2Cl)O1

- inhibition [5]: 0%
- inhibition [6]: 0%
- inhibition [8]: 0%
- inhibition [7]: 0%
SMILES: O=C1C[C@H](O)C[C@@H](/C=C/c2ccc(Cl)cc2Cl)O1 (stereo in doubt; 6a(-))

- inhibition [5]: 26%
- inhibition [6]: 63%
- inhibition [8]: 14%
- IC50 [16]: 19.8 µM
- Relative potency [18]: 0.08
- inhibition [7]: 37%
SMILES: C[C@]1(O)CC(=O)O[C@H](CCc2ccc(Cl)cc2Cl)C1

- inhibition [5]: 0%
- inhibition [19]: 0%
- inhibition [2]: 0%
- inhibition [3]: 0%
SMILES: COC(/C=C/c1ccc(Cl)cc1Cl)CC(O)CC(=O)O (stereo unspecified)

- IC50 [16]: 10.8 µM
SMILES: O=C1C[C@H](O)C[C@@H](/C=C/c2ccc(Cl)cc2Cl)O1 (stereo in doubt; 6a(+)) [listing 1 of 2 here]

- inhibition [9]: 0%
- inhibition [10]: 0%
SMILES: O=C1C[C@@H](O)C[C@H](/C=C\c2ccc(Cl)cc2Cl)O1

- inhibition [8]: 1%
- inhibition [15]: 28%
- IC50 [16]: 90 µM
- inhibition [3]: 13%
SMILES: O=C1C[C@H](O)CC(CC[C@@H]2CC[C@H]3CCCC[C@@H]3C2)O1 (stereo partly specified)

- inhibition [5]: 45%
- inhibition [8]: 26%
- Relative potency [18]: 0.16
- inhibition [2]: 72%
- inhibition [3]: 66%
- inhibition [4]: 86%
SMILES: O=C1C[C@H](O)C[C@@H](/C=C/c2ccc(Cl)cc2Cl)O1 (stereo in doubt; 6a(+)) [listing 2 of 2 here]

- inhibition [5]: 0%
- inhibition [20]: 5%
- inhibition [2]: 3%
- inhibition [7]: 3%
SMILES: CC1=CC(=O)OC(/C=C/c2ccc(Cl)cc2Cl)C1 (stereo unspecified)

- IC50 [16]: 22 µM
SMILES: O=C1C[C@H](O)C[C@@H](/C=C/c2ccc(Cl)cc2Cl)O1 (racemic) [listing 1 of 2 here]

- inhibition [5]: 21%
- inhibition [8]: 11%
- IC50 [16]: 20 µM
- Relative potency [18]: 0.09
- inhibition [2]: 61%
- inhibition [7]: 36%
SMILES: C[C@]1(O)CC(=O)O[C@H](/C=C/c2ccc(Cl)cc2Cl)C1

- IC50 [16]: 107 µM
- inhibition [1]: 70%
- inhibition [2]: 22%
- inhibition [3]: 15%
- inhibition [4]: 44%
SMILES: O=C1C[C@H](O)C[C@@H](CC[C@@H]2CCC[C@@H]3CCCC[C@@H]32)O1

- inhibition [5]: 3%
- inhibition [20]: 15%
- inhibition [2]: 5%
- inhibition [7]: 7%
SMILES: C[C@@]1(O)CC(=O)O[C@H](/C=C/c2ccc(Cl)cc2Cl)C1

- IC50 [16]: 0.01 µM
- Relative potency [18]: 100
SMILES: CC[C@H](C)C(=O)O[C@H]1CCC=C2C=C[C@H](C)[C@H](CC[C@@H]3C[C@@H](O)CC(=O)O3)[C@H]21 [MEVASTATIN]

- inhibition [5]: 0%
- inhibition [6]: 0%
- inhibition [8]: 0%
- inhibition [21]: 0%
SMILES: NC(=O)C[C@H](O)C[C@H](O)/C=C/c1ccc(Cl)cc1Cl

- inhibition [1]: 18%
- inhibition [2]: 9%
- inhibition [3]: 16%
- inhibition [4]: 7%
SMILES: O=C1C[C@H](O)CC(c2cccc3ccccc23)O1 (stereo partly specified)

- inhibition [22]: 61%
- IC50 [16]: 0.89 µM
- Relative potency [18]: 1.5
- inhibition [12]: 81%
- inhibition [13]: 48%
- inhibition [14]: 25%
SMILES: O=C1C[C@H](O)C[C@@H](C=C2c3ccccc3-c3ccccc32)O1

- inhibition [5]: 11%
- inhibition [20]: 35%
- inhibition [2]: 25%
- inhibition [3]: 7%
SMILES: O=C1C[C@H](O)CC(CCCc2cccc3ccccc23)O1 (stereo partly specified)

- inhibition [5]: 0%
- inhibition [1]: 15%
- inhibition [2]: 12%
SMILES: O=C1C=C(O)OC(/C=C/c2ccc(Cl)cc2Cl)C1 (stereo unspecified)

- inhibition [11]: 42%
- IC50 [16]: 1.6 µM
- Relative potency [18]: 0.9
- inhibition [13]: 34%
- inhibition [14]: 20%
SMILES: O=C1C[C@H](O)C[C@@H](C=C2c3ccccc3C=Cc3ccccc32)O1

- inhibition [23]: 58%
- IC50 [16]: 1.9 µM
- inhibition [24]: 39%
- inhibition [25]: 64%
- Relative potency [18]: 1.1
SMILES: O=C1C[C@H](O)C[C@@H](/C=C/c2cccc3ccc4ccccc4c23)O1

- inhibition [5]: 38%
- inhibition [8]: 29%
- IC50 [16]: 15.2 µM
- inhibition [2]: 80%
- inhibition [3]: 57%
SMILES: O=C1C[C@H](O)C[C@@H](CCc2ccc(Cl)cc2Cl)O1

- inhibition [8]: 13%
- Relative potency [18]: 0.08
- inhibition [2]: 64%
- inhibition [3]: 41%
- inhibition [4]: 84%
SMILES: O=C1C[C@H](O)C[C@@H](/C=C/c2ccc(Cl)cc2Cl)O1 (racemic) [listing 2 of 2 here]

- inhibition [1]: 31%
- inhibition [2]: 15%
- inhibition [3]: 3%
- inhibition [4]: 14%
SMILES: O=C1C[C@H](O)C[C@@H](/C=C/c2ccccc2)O1
